Laboratory results from the NIST ThermoML archive (doi:10.1021/je900672g).
Numbers after ± are expanded uncertainties.

Test: isobaric coefficient of expansion
Settings: Liquid, DSC

CCC[N+](=O)[O-] [1-nitropropane]
isobaric coefficient of expansion (278.15 K, 5000 kPa): 0.00105 ± 2.6e-05 1/K | isobaric coefficient of expansion (278.15 K, 10000 kPa): 0.00103 ± 2.5e-05 1/K | isobaric coefficient of expansion (278.15 K, 15000 kPa): 0.00101 ± 2.5e-05 1/K | isobaric coefficient of expansion (278.15 K, 20000 kPa): 0.000982 ± 2.4e-05 1/K | isobaric coefficient of expansion (278.15 K, 25000 kPa): 0.000966 ± 2.4e-05 1/K | isobaric coefficient of expansion (278.15 K, 30000 kPa): 0.000943 ± 2.3e-05 1/K | isobaric coefficient of expansion (278.15 K, 35000 kPa): 0.000933 ± 2.3e-05 1/K | isobaric coefficient of expansion (278.15 K, 40000 kPa): 0.000913 ± 2.2e-05 1/K | isobaric coefficient of expansion (278.15 K, 45000 kPa): 0.000902 ± 2.2e-05 1/K | isobaric coefficient of expansion (278.15 K, 50000 kPa): 0.000885 ± 2.2e-05 1/K | isobaric coefficient of expansion (278.15 K, 55000 kPa): 0.000871 ± 2.1e-05 1/K | isobaric coefficient of expansion (288.15 K, 5000 kPa): 0.00106 ± 2.6e-05 1/K | isobaric coefficient of expansion (288.15 K, 10000 kPa): 0.00104 ± 2.5e-05 1/K | isobaric coefficient of expansion (288.15 K, 15000 kPa): 0.00101 ± 2.5e-05 1/K | isobaric coefficient of expansion (288.15 K, 20000 kPa): 0.000991 ± 2.4e-05 1/K | isobaric coefficient of expansion (288.15 K, 25000 kPa): 0.000972 ± 2.4e-05 1/K | isobaric coefficient of expansion (288.15 K, 30000 kPa): 0.000954 ± 2.3e-05 1/K | isobaric coefficient of expansion (288.15 K, 35000 kPa): 0.000932 ± 2.3e-05 1/K | isobaric coefficient of expansion (288.15 K, 40000 kPa): 0.000916 ± 2.2e-05 1/K | isobaric coefficient of expansion (288.15 K, 45000 kPa): 0.000902 ± 2.2e-05 1/K | isobaric coefficient of expansion (288.15 K, 50000 kPa): 0.000887 ± 2.2e-05 1/K | isobaric coefficient of expansion (288.15 K, 55000 kPa): 0.000874 ± 2.1e-05 1/K | isobaric coefficient of expansion (298.15 K, 5000 kPa): 0.00108 ± 2.6e-05 1/K | isobaric coefficient of expansion (298.15 K, 10000 kPa): 0.00105 ± 2.6e-05 1/K | isobaric coefficient of expansion (298.15 K, 15000 kPa): 0.00103 ± 2.5e-05 1/K | isobaric coefficient of expansion (298.15 K, 20000 kPa): 0.001 ± 2.5e-05 1/K | isobaric coefficient of expansion (298.15 K, 25000 kPa): 0.000977 ± 2.4e-05 1/K | isobaric coefficient of expansion (298.15 K, 30000 kPa): 0.000958 ± 2.3e-05 1/K | isobaric coefficient of expansion (298.15 K, 35000 kPa): 0.000941 ± 2.3e-05 1/K | isobaric coefficient of expansion (298.15 K, 40000 kPa): 0.00092 ± 2.3e-05 1/K | isobaric coefficient of expansion (298.15 K, 45000 kPa): 0.000904 ± 2.2e-05 1/K | isobaric coefficient of expansion (298.15 K, 50000 kPa): 0.000889 ± 2.2e-05 1/K | isobaric coefficient of expansion (298.15 K, 55000 kPa): 0.000875 ± 2.1e-05 1/K | isobaric coefficient of expansion (308.15 K, 5000 kPa): 0.00109 ± 2.7e-05 1/K | isobaric coefficient of expansion (308.15 K, 10000 kPa): 0.00106 ± 2.6e-05 1/K | isobaric coefficient of expansion (308.15 K, 15000 kPa): 0.00104 ± 2.5e-05 1/K | isobaric coefficient of expansion (308.15 K, 20000 kPa): 0.00101 ± 2.5e-05 1/K | isobaric coefficient of expansion (308.15 K, 25000 kPa): 0.000986 ± 2.4e-05 1/K | isobaric coefficient of expansion (308.15 K, 30000 kPa): 0.000963 ± 2.4e-05 1/K | isobaric coefficient of expansion (308.15 K, 35000 kPa): 0.000945 ± 2.3e-05 1/K | isobaric coefficient of expansion (308.15 K, 40000 kPa): 0.000921 ± 2.3e-05 1/K | isobaric coefficient of expansion (308.15 K, 45000 kPa): 0.000906 ± 2.2e-05 1/K | isobaric coefficient of expansion (308.15 K, 50000 kPa): 0.000891 ± 2.2e-05 1/K | isobaric coefficient of expansion (308.15 K, 55000 kPa): 0.000873 ± 2.1e-05 1/K | isobaric coefficient of expansion (318.15 K, 5000 kPa): 0.00113 ± 2.8e-05 1/K | isobaric coefficient of expansion (318.15 K, 10000 kPa): 0.00109 ± 2.7e-05 1/K | isobaric coefficient of expansion (318.15 K, 15000 kPa): 0.00106 ± 2.6e-05 1/K | isobaric coefficient of expansion (318.15 K, 20000 kPa): 0.00103 ± 2.5e-05 1/K | isobaric coefficient of expansion (318.15 K, 25000 kPa): 0.000995 ± 2.4e-05 1/K | isobaric coefficient of expansion (318.15 K, 30000 kPa): 0.000976 ± 2.4e-05 1/K | isobaric coefficient of expansion (318.15 K, 35000 kPa): 0.000952 ± 2.3e-05 1/K | isobaric coefficient of expansion (318.15 K, 40000 kPa): 0.000927 ± 2.3e-05 1/K | isobaric coefficient of expansion (318.15 K, 45000 kPa): 0.00091 ± 2.2e-05 1/K | isobaric coefficient of expansion (318.15 K, 50000 kPa): 0.000895 ± 2.2e-05 1/K | isobaric coefficient of expansion (318.15 K, 55000 kPa): 0.00088 ± 2.2e-05 1/K | isobaric coefficient of expansion (328.15 K, 5000 kPa): 0.00115 ± 2.8e-05 1/K | isobaric coefficient of expansion (328.15 K, 10000 kPa): 0.00111 ± 2.7e-05 1/K | isobaric coefficient of expansion (328.15 K, 15000 kPa): 0.00107 ± 2.6e-05 1/K | isobaric coefficient of expansion (328.15 K, 20000 kPa): 0.00104 ± 2.5e-05 1/K | isobaric coefficient of expansion (328.15 K, 25000 kPa): 0.00101 ± 2.5e-05 1/K | isobaric coefficient of expansion (328.15 K, 30000 kPa): 0.000981 ± 2.4e-05 1/K | isobaric coefficient of expansion (328.15 K, 35000 kPa): 0.000957 ± 2.3e-05 1/K | isobaric coefficient of expansion (328.15 K, 40000 kPa): 0.00093 ± 2.3e-05 1/K | isobaric coefficient of expansion (328.15 K, 45000 kPa): 0.000912 ± 2.2e-05 1/K | isobaric coefficient of expansion (328.15 K, 50000 kPa): 0.000894 ± 2.2e-05 1/K | isobaric coefficient of expansion (328.15 K, 55000 kPa): 0.00088 ± 2.2e-05 1/K | isobaric coefficient of expansion (338.15 K, 5000 kPa): 0.00119 ± 2.9e-05 1/K | isobaric coefficient of expansion (338.15 K, 10000 kPa): 0.00113 ± 2.8e-05 1/K | isobaric coefficient of expansion (338.15 K, 15000 kPa): 0.00109 ± 2.7e-05 1/K | isobaric coefficient of expansion (338.15 K, 20000 kPa): 0.00105 ± 2.6e-05 1/K | isobaric coefficient of expansion (338.15 K, 25000 kPa): 0.00102 ± 2.5e-05 1/K | isobaric coefficient of expansion (338.15 K, 30000 kPa): 0.000988 ± 2.4e-05 1/K | isobaric coefficient of expansion (338.15 K, 35000 kPa): 0.000964 ± 2.4e-05 1/K | isobaric coefficient of expansion (338.15 K, 40000 kPa): 0.00093 ± 2.3e-05 1/K | isobaric coefficient of expansion (338.15 K, 45000 kPa): 0.000914 ± 2.2e-05 1/K | isobaric coefficient of expansion (338.15 K, 50000 kPa): 0.000894 ± 2.2e-05 1/K | isobaric coefficient of expansion (338.15 K, 55000 kPa): 0.000883 ± 2.2e-05 1/K | isobaric coefficient of expansion (348.15 K, 5000 kPa): 0.00122 ± 3e-05 1/K | isobaric coefficient of expansion (348.15 K, 10000 kPa): 0.00117 ± 2.9e-05 1/K | isobaric coefficient of expansion (348.15 K, 15000 kPa): 0.00111 ± 2.7e-05 1/K | isobaric coefficient of expansion (348.15 K, 20000 kPa): 0.00107 ± 2.6e-05 1/K | isobaric coefficient of expansion (348.15 K, 25000 kPa): 0.00103 ± 2.5e-05 1/K | isobaric coefficient of expansion (348.15 K, 30000 kPa): 0.000996 ± 2.4e-05 1/K | isobaric coefficient of expansion (348.15 K, 35000 kPa): 0.000967 ± 2.4e-05 1/K | isobaric coefficient of expansion (348.15 K, 40000 kPa): 0.000932 ± 2.3e-05 1/K | isobaric coefficient of expansion (348.15 K, 45000 kPa): 0.000915 ± 2.2e-05 1/K | isobaric coefficient of expansion (348.15 K, 50000 kPa): 0.000894 ± 2.2e-05 1/K | isobaric coefficient of expansion (348.15 K, 55000 kPa): 0.000879 ± 2.2e-05 1/K
